From patent US7629364B2, “Compounds that abrogate DNA-damage-induced cell cycle G2 checkpoint and/or augment anti-cancer activity of DNA-damaging treatments” (Canbas Co., Ltd., priority 2002, dated 2009)
“Also recorded” adds a separate entry of the source. Read-outs that look alike come from different tables or passages of the source.

Experiments:
Jurkat cells [1] = assay: G2 checkpoint abrogation in bleomycin-treated Jurkat cells (flow cytometry of DNA content); format: cell-based, human; conditions: for abrogation of bleomycin-induced accumulation of G2/M cells (% G2/M): bleomycin 40 μg/ml plus compound 0.2-50 μg/ml
Procedure: (§1) Cell culture. A human T-cell leukemia-derived cell line, Jurkat, was cultured in RPMI 1640 media (Sigma) supplemented with 10% fetal calf serum (IBL: Immuno-Biological Laboratories, Gunma, Japan) at 37° C./5% CO2. A human colon cancer-derived cell line, HCT116, was cultured in McCoy's 5A Medium Modified (Gibco BRL) and supplemented with 10% fetal calf serum at 37° C./5% CO2. Normal human peripheral blood lymphocytes were separated by Ficoll-Paque® (Pharmacia) and cultured in the presence of 0.1 μg/ml PHA and 1 μg/ml IL-2.
(§2) Cell-cycle analysis. […] Briefly, two million cells were resuspended and incubated in 300 μl Krishan's solution (0.1% Sodium citrate, 50 μg/ml PI, 20 μg/ml RNase A and 0.5% NP-40) for 1 hr at 4° C. and analyzed by flow cytometry using a FACScan™ flow cytometer (Beckton Dickinson, Mountain View, Calif.) with the CELLQuest™ program (Beckton Dickinson).
DNA of treated Jurkat cells was stained with propidium iodine, and the cell cycle status of each cell was assessed by flow cytometry.
CBDC compounds 004, 402, 403, 404, 405, 406, 407, 408, 409, 410, and 411 were tested. Cells were harvested, DNA was stained with propidium iodine, and the percentage of cells in G2/M phase (% G2/M) was determined by flow cytometry.
Activated normal T cells and leukemic T cells (Jurkat cells) were treated with agents to induce accumulation of cells at G2 or M phase, and the effect of CBDC402 on progression of cells through cell cycle checkpoints was measured. After treatments, cells were harvested, DNA was stained, and the cell cycle stage for each cell was determined by flow cytometry as described above. […] In another experiment, activated normal T cells received no treatment (control) or were treated with colchicine or a combination of […] and colchicine.

[2] = test system: HCT116 human colon carcinoma cells; assay: G2 checkpoint induced by various anti-cancer agents in HCT116 cells (flow cytometry); format: cell-based; conditions: co-incubation with CBDC004 2, 10 or 50 μM, 24 hrs
Procedure: as §1, §2
DNA was stained with propidium iodine, and the cell cycle status of each cell was assessed by flow cytometry.

[3] = test system: HCT-116 human colon carcinoma cells; assay: Xenograft tumor growth in SCID mice; format: in vivo; conditions: HCT-116 xenograft, intraperitoneal
Procedure: Treatment was initiated when the primary tumors reached the size of 0.1 cm^3 (7 or 8 mm, designated as Day 1).
Anti-cancer agent CPT-11 (CAMPTOSAR®, Irinotecan, a topoisomerase inhibitor) and CBDC402 were administered by intraperitoneal injection in the following treatment regimens: […] at 20 mg/kg once a week; CBDC402 at 20 mg/kg twice a week; CBDC402 at 40 mg/kg twice a week; CBDC402 at 20 mg/kg twice and week plus CPT-11 at 20 mg/kg once a week; and CBDC402 at 40 mg/kg twice a week plus CPT-11 at 20 mg/kg once a week. DMSO was administered as a control treatment. Tumor sizes were measured using calipers three times a week, and the volume was calculated using the formula; […]=[width (mm)^2×length (mm)]/2. Mean tumor sizes for each treatment group (n=4) were plotted against the days of treatment.

Activated normal T cells [4] = assay: G2 checkpoint in bleomycin-treated activated normal T cells (flow cytometry); format: cell-based, human
Procedure: as §1, §2
(§3) Activated normal T cells and leukemic T cells (Jurkat cells) were treated with agents to induce accumulation of cells at G2 or M phase, and the effect of CBDC402 on progression of cells through cell cycle checkpoints was measured. After treatments, cells were harvested, DNA was stained, and the cell cycle stage for each cell was determined by flow cytometry as described above. […]

MK-45 cells = assay: Colony formation analysis of MK-45 cells; format: cell-based, human; conditions: 14 days culture; for colony formation, combination with CPT-11: 10 μM CBDC compound plus 10 μg/ml CPT-11, 3 hours; for colony formation, CBDC compound alone: 10 μM, 3-hour treatment
Procedure: MK-45 cells from a human gastric cancer derived cell line, were seeded in 6-well plates at 1000 cells/well. After the overnight culture, the cells were treated 10 μM of various CBDC compounds, 10 μg/ml CPT-11, or a combination of CBDC compounds and CPT-11 for three (3) hours. The CBDC compounds tested were: CBDC402, CBDC412, CBDC413, and CBDC418. The culture medium was changed and cells were cultured for 14 days, after which the colonies were fixed with methanol and stained with 0.1% crystal violet.

Activated normal T cells [5] = assay: M phase checkpoint in colchicine-treated activated normal T cells (flow cytometry); format: cell-based, human; conditions: FIG. 10c
Procedure: as §1, §2, §3

Jurkat cells [6] = assay: M phase checkpoint in colchicine-treated Jurkat cells (flow cytometry); format: cell-based, human; conditions: 24 hrs
Procedure: as §1, §2
Jurkat cells were treated with colchicine (5 ug/ml), and colchicine plus the compound CBDC402 in various concentrations (0.2, 0.39, 0.78, 1.56, 3.125, 6.25, 12.5, 25 and 50 ug/ml) for 24 hrs. DNA of treated Jurkat cells was stained with propidium iodine, and the cell cycle status of each cell was assessed by flow cytometry.

HCT116 cells = test system: HCT116 cells
Procedure: The subG1 population was determined by staining HCT116 with Krishan's solution and analyzed by flow cytometer. The dead cells were identified on the basis of DNA content, and the percentage of cells in sub G1 (% subG1) was calculated.

Q: With `COc1ccc(OC(=O)c2ccc(Cl)cc2)cc1` [CBDC004, 4-Chloro-benzoic acid 4-methoxy-phenyl ester] as the molecule, how does the “abrogation of bleomycin-induced accumulation of G2/M cells (% G2/M)” value (“abrogation … (% G2/M)” for short) (Jurkat cells [1]; Jurkat cells, 24 hrs) read?
A: The value was “abrogated the G2 cell cycle checkpoint in bleomycin-treated Jurkat cells in a dose-dependent manner”.

Q: What about the “effect on G2/M accumulation induced by bleomycin, adriamycin, camptothecin or cisplatin” value [2] of the same molecule?
A: The value was “reduced the number of cells at G2/M”.

Q: With `Cc1ccc(OC(=O)c2ccc(Br)cc2)cc1` [CBDC402, 4-Bromo-benzoic acid p-tolyl ester] as the molecule, how does the “tumor growth, CBDC402 alone” value ([3]; 20 or 40 mg/kg twice a week (both concentrations)) read?
A: Its value is “gave a slight reduction in tumor growth”.

Q: What about the “tumor growth, combination with CPT-11” value ([3]; CBDC402 20 or 40 mg/kg twice a week plus CPT-11 20 mg/kg once a week) of the same molecule?
A: The value was “significantly reduced or inhibited tumor growth”.

Q: And the “effect on bleomycin-induced increase of cells at G2 phase” value (Activated normal T cells [4]; combination of bleomycin and CBDC402, FIG. 10a)?
A: Its value is “abolished the bleomycin-induced increase of activated normal T cells at G2 phase”.

Q: What about the “abrogation … (% G2/M)” value (Jurkat cells [1]; Jurkat cells, 24 hrs) of the same molecule?
A: Its value is “abolished the bleomycin-induced accumulation of G2/M cells in a dose-dependent manner; also recorded: abrogated the G2 cell cycle checkpoint in bleomycin-treated Jurkat cells in a dose-dependent manner”.

Q: And the “relative G2 checkpoint abrogating activity among CBDC compounds tested (dose-response curve)” value (Jurkat cells [1]; Jurkat cells, bleomycin 40 ug/ml, 24 hrs, FIG. 3)?
A: Its value is “showed the highest activity”.

Q: And the “effect on bleomycin-induced increase of cells at G2 phase” value (Jurkat cells [1]; leukemic T cells (Jurkat cells), combination of bleomycin and CBDC402, FIG. 10b)?
A: Its value is “abolished the large bleomycin-induced increase of leukemic T cells (Jurkat cells) at G2 phase”.

Q: And the “colony formation, combination with CPT-11” value (MK-45 cells)?
A: The value was “almost complete suppression of colony formation”.

Q: What about the “colony formation, CBDC compound alone” value (MK-45 cells) of the same molecule?
A: The value was “significant suppression of colony formation”.

Q: And the “effect on colchicine-induced increase of cells at M phase” value (Activated normal T cells [5]; combination with colchicine)?
A: Its value is “did not affect the colchicine-induced increase of activated normal T cells at M phase”.

Q: What about the “abrogation of colchicine-induced G2/M accumulation” value (Jurkat cells [6]; colchicine 5 ug/ml plus compound 0.2-50 ug/ml) of the same molecule?
A: Its value is “did not abrogate this G2/M accumulation at any CBDC402 concentration”.

Q: `Cc1ccc(OC(=O)c2cc(F)c(F)c(F)c2)cc1` [CBDC403, 3,4,5-Trifluoro-benzoic acid p-toly 1 ester] was tested. Which “abrogation … (% G2/M)” value (Jurkat cells [1]; Jurkat cells, 24 hrs) did it give?
A: Its value is “abrogated the G2 cell cycle checkpoint in bleomycin-treated Jurkat cells in a dose-dependent manner”.

Q: `CC.O=C(Oc1ccc(Br)cc1)c1ccc(F)cc1` [CBDC404, 4-Fluoro-benzoic acid 4-bromo-pheny 1 ester; compound with ethane] was tested. Which “abrogation … (% G2/M)” value (Jurkat cells [1]; Jurkat cells, 24 hrs) did it give?
A: Its value is “abrogated the G2 cell cycle checkpoint in bleomycin-treated Jurkat cells in a dose-dependent manner”.

Q: `CC.Cc1ccc(OC(=O)c2ccc(Cl)c(Cl)c2)cc1` [CBDC405, 3,4-Dichloro-benzoic acid p-tolyl ester; compound with ethane] was tested. Which “abrogation … (% G2/M)” value (Jurkat cells [1]; Jurkat cells, 24 hrs) did it give?
A: Its value is “abrogated the G2 cell cycle checkpoint in bleomycin-treated Jurkat cells in a dose-dependent manner”.

Q: Which “abrogation … (% G2/M)” value (Jurkat cells [1]; Jurkat cells, 24 hrs) does the source give for `CC.Cc1ccc(OC(=O)c2ccc(Cl)cc2Cl)cc1` [CBDC406, 2,4-Dichloro-benzoic acid p-tolyl ester; compound with ethane] here?
A: The value was “abrogated the G2 cell cycle checkpoint in bleomycin-treated Jurkat cells in a dose-dependent manner”.

Q: `CC.Cc1ccc(OC(=O)c2ccc(F)cc2)cc1` [CBDC407, 4-Fluoro-benzoic acid p-tolyl ester; compound with ethane] was tested. Which “abrogation … (% G2/M)” value (Jurkat cells [1]; Jurkat cells, 24 hrs) did it give?
A: The value was “abrogated the G2 cell cycle checkpoint in bleomycin-treated Jurkat cells in a dose-dependent manner”.

Q: How did the “abrogation … (% G2/M)” value (Jurkat cells [1]; Jurkat cells, 24 hrs) turn out when `CC.Cc1ccc(OC(=O)c2c(F)c(F)c(F)c(F)c2F)cc1` [CBDC408, 2,3,4,5,6-Pentafluoro-benzoic acid p-tolyl ester; compound with ethane] was run?
A: The value was “abrogated the G2 cell cycle checkpoint in bleomycin-treated Jurkat cells in a dose-dependent manner”.

Q: How did the “abrogation … (% G2/M)” value (Jurkat cells [1]; Jurkat cells, 24 hrs) turn out when `CC.Cc1ccc(OC(=O)c2ccc(Cl)cc2)cc1C` [CBDC409, 4-Chloro-benzoic acid 3,4-dimethyl-phenyl ester; compound with ethane] was run?
A: The value was “abrogated the G2 cell cycle checkpoint in bleomycin-treated Jurkat cells in a dose-dependent manner”.

Q: Which “abrogation … (% G2/M)” value (Jurkat cells [1]; Jurkat cells, 24 hrs) does the source give for `CC.O=C(Oc1ccc(O)cc1)c1ccc(Cl)cc1` [CBDC410, 4-Chloro-benzoic acid 4-hydroxy-phenyl ester; compound with ethane] here?
A: The value was “abrogated the G2 cell cycle checkpoint in bleomycin-treated Jurkat cells in a dose-dependent manner”.

Q: `CC.O=C(Oc1ccc(O)cc1)c1ccc(F)cc1` [CBDC411, 4-Fluoro-benzoic acid 4-hydroxy-phenyl ester; compound with ethane] was tested. Which “abrogation … (% G2/M)” value (Jurkat cells [1]; Jurkat cells, 24 hrs) did it give?
A: Its value is “abrogated the G2 cell cycle checkpoint in bleomycin-treated Jurkat cells in a dose-dependent manner”.

Q: What does the source list for `O=C(Oc1ccc(F)cc1)c1ccc(Br)cc1` [CBDC412, 4-Bromo-benzoic acid 4-fluoro-phenyl ester]?
A: colony formation, combination with CPT-11 (MK-45 cells): a slight suppression of colony formation above that seen with CPT-11 alone; colony formation, CBDC compound alone (MK-45 cells): a slight suppression of colony formation

Q: Which “colony formation, CBDC compound alone” value (MK-45 cells) does the source give for `O=C(Oc1ccc(C(F)(F)F)cc1)c1ccc(Br)cc1` [CBDC413, 4-Bromo-benzoic acid 4-trifluoromethyl-phenyl ester] here?
A: Its value is “did not have an appreciable effect on colony formation”.

Q: How did the “colony formation, CBDC compound alone” value (MK-45 cells) turn out when `Cc1ccc(OC(=O)c2ccc(Br)cc2)cn1` [CBDC418, 4-Bromo-benzoic acid 6-methyl-pyridin-3-yl ester] was run?
A: Its value is “did not have an appreciable effect on colony formation”.

Q: How did the “tumor growth, CPT-11 alone” value ([3]; 20 mg/kg once a week) turn out when `CCc1c2c(nc3ccc(OC(=O)N4CCC(N5CCCCC5)CC4)cc13)-c1cc3c(c(=O)n1C2)COC(=O)[C@]3(O)CC` [CPT-11, Irinotecan, reference compound] was run?
A: Its value is “reduced tumor growth”.

Q: And the “colony formation, CPT-11 alone” value (MK-45 cells; 10 μg/ml, 3 hours)?
A: Its value is “significant suppression of colony formation”.

Q: For `COc1cccc2c1C(=O)c1c(O)c3c(c(O)c1C2=O)C[C@@](O)(C(=O)CO)C[C@@H]3O[C@H]1C[C@H](N)[C@H](O)[C@H](C)O1` [adriamycine, adriamycin], which “cytotoxic effect (% subG1) of anti-cancer agent alone” value (HCT116 cells) is on record?
A: The value was “had a cytotoxic effect on HCT116 cells”.

Q: For `CC[C@@]1(O)C(=O)OCc2c1cc1n(c2=O)Cc2cc3ccccc3nc2-1` [canptothecine, camptothecin], which “cytotoxic effect (% subG1) of anti-cancer agent alone” value (HCT116 cells; HCT116 cells, without CBDC004) is on record?
A: The value was “had a cytotoxic effect on HCT116 cells”.

Q: What does the source list for `COc1cc2c(c(OC)c1OC)-c1ccc(OC)c(=O)cc1[C@@H](NC(C)=O)CC2` [colchicine, reference compound]?
A: accumulation of cells in M phase by colchicine alone (Activated normal T cells [5]): caused an accumulation of cells in M phase; accumulation of cells in G2/M phase by agent alone (Jurkat cells [6]; colchicine 5 ug/ml): induced an accumulation of cells in G2/M phase cells

Q: What does the source list for bleomycin [reference compound]?
A: accumulation of cells at G2 phase by bleomycin alone (Activated normal T cells [4]; FIG. 10a): caused accumulation of a minor population of cells at G2 phase; accumulation of cells in G2/M phase by agent alone (Jurkat cells [1]; Jurkat cells, bleomycin 40 μg/ml, 24 hrs): induced an accumulation of cells in cell cycle G2/M phase; accumulation of cells at G2 phase by bleomycin alone (Jurkat cells [1]; leukemic T cells (Jurkat cells), FIG. 10b): caused accumulation of a major population of cells at G2 phase
